Assay results published in patent US8067424B2, “Selective inhibitors for cyclin-dependent kinases” (Emory University, priority 2007, dated 2011).
Read-outs that look alike come from different tables or passages of the source.

Experiments:
NCI-H226 = assay: cells; conditions: Homo sapiens
HL-60(TB) = assay: cells; conditions: Homo sapiens
[1] = COLO 205, log10 concentration −4.0
[2] = COLO 205, log10 concentration −5.0
[3] = COLO 205, log10 concentration −6.0
[4] = COLO 205, log10 concentration −7.0
[5] = COLO 205, log10 concentration −8.0
[6] = 786-0, log10 concentration −4.0
[7] = 786-0, log10 concentration −5.0
[8] = 786-0, log10 concentration −6.0
[9] = 786-0, log10 concentration −7.0
[10] = 786-0, log10 concentration −8.0

CC(C)c1cnn2c(NCc3ccccc3)cc(N[C@@H](CO)[C@H](O)CO)nc12 [ICEC0318, (3S)-3-(7-(Benzylamino)-3-isopropylpyrazolo[1,5-a]pyrimidin-5-ylamino)butane-1,2,4-triol]
TGI (COLO 205; COLO 205 (Colon Cancer)): 3.82E−7 | Mean Optical Densities (COLO 205; [1]): 0.030 | Percent Growth (COLO 205; [1]): −77% | Mean Optical Densities (COLO 205; [2]): 0.050 | Percent Growth (COLO 205; [2]): −62% | Mean Optical Densities (COLO 205; [3]): 0.065 | Percent Growth (COLO 205; [3]): −50% | Mean Optical Densities (COLO 205; [4]): 0.372 | Percent Growth (COLO 205; [4]): 70% | Mean Optical Densities (COLO 205; [5]): 0.499 | Percent Growth (COLO 205; [5]): 107% | TGI (A498; A498 (Renal Cancer)): 4.83E−7 | Mean Optical Densities (A498; A498, log10 concentration −4.0): 0.386 | Percent Growth (A498; A498, log10 concentration −4.0): −54% | Mean Optical Densities (A498; A498, log10 concentration −5.0): 0.365 | Percent Growth (A498; A498, log10 concentration −5.0): −56% | Mean Optical Densities (A498; A498, log10 concentration −6.0): 0.414 | Percent Growth (A498; A498, log10 concentration −6.0): −50% | Mean Optical Densities (A498; A498, log10 concentration −7.0): 1.321 | Percent Growth (A498; A498, log10 concentration −7.0): 109% | Mean Optical Densities (A498; A498, log10 concentration −8.0): 1.280 | Percent Growth (A498; A498, log10 concentration −8.0): 100% | GI50 (NCI-H226; NCI-H226): 0.272 µM | CC50 (NCI-H226; NCI-H226, read-out: LC50): > 100 µM | GI50 (HL-60(TB); HL-60): 0.166 µM | CC50 (HL-60(TB); HL-60, read-out: LC50): > 100 µM | TGI (786-0; 786-0 (Renal Cancer)): 8.99E−7 | Mean Optical Densities (786-0; [6]): 0.491 | Percent Growth (786-0; [6]): −21% | Mean Optical Densities (786-0; [7]): 0.598 | Percent Growth (786-0; [7]): −4% | Mean Optical Densities (786-0; [8]): 0.592 | Percent Growth (786-0; [8]): −5% | Mean Optical Densities (786-0; [9]): 1.769 | Percent Growth (786-0; [9]): 98% | Mean Optical Densities (786-0; [10]): 1.824 | Percent Growth (786-0; [10]): 103% | GI50 (786-0; Homo sapiens, 786-0): 0.293 µM | CC50 (786-0; Homo sapiens, 786-0, read-out: LC50): > 100 µM
